Data from ChEMBL document CHEMBL5370584, “Reprogramming Energy Metabolism with Synthesized PDK Inhibitors Based on Dichloroacetate Derivatives and Targeted Delivery Systems for Enhanced Cancer Therapy” (J Med Chem, 2023).
Calls of active or inactive are those of the source. The rule behind the calls is not given here.

Legend:
[1] = target: [Pyruvate dehydrogenase (acetyl-transferring)] kinase isozyme 4, mitochondrial (Mus musculus) (UniProt O70571); experiment: Inhibition of PDK4 transcription in mouse 4T1 cells at 4 uM incubated for 24 hrs by qPCR analysis; format: cell-based
Chain of [Pyruvate dehydrogenase (acetyl-transferring)] kinase isozyme 4, mitochondrial (Mus musculus) (O70571 whole entry): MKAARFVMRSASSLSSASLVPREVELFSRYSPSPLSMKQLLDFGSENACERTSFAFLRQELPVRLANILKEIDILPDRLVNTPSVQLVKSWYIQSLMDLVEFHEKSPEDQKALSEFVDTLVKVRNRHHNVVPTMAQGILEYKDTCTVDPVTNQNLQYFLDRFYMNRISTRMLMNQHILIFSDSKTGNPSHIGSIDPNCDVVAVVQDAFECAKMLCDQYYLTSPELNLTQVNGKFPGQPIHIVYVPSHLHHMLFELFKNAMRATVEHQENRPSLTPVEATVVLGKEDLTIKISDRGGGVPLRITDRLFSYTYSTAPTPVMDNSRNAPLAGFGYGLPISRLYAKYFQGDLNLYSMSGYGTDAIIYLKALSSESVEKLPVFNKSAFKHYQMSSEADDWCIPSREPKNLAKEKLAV

[2] = test system: MOLM-13; experiment: Antiproliferative activity against human MOLM-13 cells assessed as inhibition of cell growth incubated for 24 hrs by MTT assay; format: functional, cell-based; conditions: MOLM-13, 24 h
[3] = test system: 4T1; experiment: Inhibition of PDK1 expression in mouse 4T1 cells at 4 uM incubated for 24 hrs by Western blot analysis; format: functional, cell-based
[4] = test system: NB-4; experiment: Antiproliferative activity against human NB4 cells assessed as inhibition of cell growth incubated for 24 hrs by MTT assay; format: functional, cell-based; conditions: NB-4, 24 h
[5] = test system: COS-7; experiment: Effect on PDK4 expression in African monkey COS7 cells at 12 uM measured after 24 hrs; format: functional, cell-based; conditions: Chlorocebus aethiops
[6] = test system: 4T1; experiment: Induction of mitochondrial respiration in mouse 4T1 cells assessed as increase in glucose uptake at 2 to 6 uM incubated for 18 hrs followed by 6 hrs incubation in serum free high glucose medium by glucose uptake assay; format: functional, cell-based; conditions: dose 2-6 µM, time 24.0 hrs
[7] = test system: 4T1; experiment: Induction of apoptosis in mouse 4T1 cells assessed as increase in proportion of apoptotic cells incubated for 24 hrs by annexin V-FITC/PI staining based flow cytometry analysis; format: functional, cell-based; conditions: dose 2-3 µM
[8] = Toxicity in BALB/c mouse assessed as effect on body weight at 0.15 to 1.5 mg/kg measured upto 16 days; format: organism-based; conditions: in vivo, 384 h, dose 0.15-1.5 mg/kg, time < 16 day
[9] = test system: 4T1; experiment: Inhibition of glycolysis in mouse 4T1 cell lysates assessed as reduction in LDH activity at 1 to 2 uM incubated for 12 hrs; format: functional, cell-based; conditions: dose 1-2 µM
[10] = Selectivity ratio of IC50 mouse 4T1 cells to IC50 for African green monkey COS7 cells
[11] = test system: 4T1; experiment: Antiproliferative activity against PDK knockdown mouse 4T1 cells assessed as reduction in apoptotic percentage at 2 uM incubated for 24 hrs by flow cytometry analysis (reference value: 61.6%); format: functional; parameters: scale not given: the % may be the effect or the level left
[12] = target: [Pyruvate dehydrogenase (acetyl-transferring)] kinase isozyme 3, mitochondrial (Mus musculus) (UniProt Q922H2); experiment: Inhibition of PDK3 transcription in mouse 4T1 cells at 4 uM incubated for 24 hrs by qPCR analysis; format: cell-based
Chain of [Pyruvate dehydrogenase (acetyl-transferring)] kinase isozyme 3, mitochondrial (Mus musculus) (Q922H2 whole entry): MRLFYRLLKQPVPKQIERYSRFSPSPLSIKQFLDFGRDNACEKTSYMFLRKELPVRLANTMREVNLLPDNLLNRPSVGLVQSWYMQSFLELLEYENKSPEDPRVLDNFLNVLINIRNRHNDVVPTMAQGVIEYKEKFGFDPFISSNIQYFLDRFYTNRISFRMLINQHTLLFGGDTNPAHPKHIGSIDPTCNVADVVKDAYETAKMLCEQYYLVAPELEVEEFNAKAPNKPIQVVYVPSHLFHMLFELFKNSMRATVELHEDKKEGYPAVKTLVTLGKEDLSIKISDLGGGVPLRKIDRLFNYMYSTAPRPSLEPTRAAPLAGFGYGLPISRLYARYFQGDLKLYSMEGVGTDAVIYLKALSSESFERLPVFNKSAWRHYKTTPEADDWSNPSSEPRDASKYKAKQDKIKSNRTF

[13] = Toxicity in BALB/c mouse assessed as effect on spleen at 0.15 to 1.5 mg/kg measured upto 16 days; format: organism-based; conditions: in vivo, 384 h, dose 0.15-1.5 mg/kg, time < 16 day
[14] = test system: 4T1; experiment: Induction of apoptosis in mouse 4T1 cells assessed as increase in Bax expression at 4 uM incubated for 24 hrs; format: functional, cell-based
[15] = Toxicity in BALB/c mouse assessed as effect on lung at 0.15 to 1.5 mg/kg measured upto 16 days; format: organism-based; conditions: in vivo, 384 h, dose 0.15-1.5 mg/kg, time < 16 day
[16] = test system: 4T1; experiment: Induction of apoptosis in mouse 4T1 cells assessed as reduction in Bcl-2 expression at 4 uM incubated for 24 hrs; format: functional, cell-based
[17] = Antiproliferative activity against African green monkey COS7 cells assessed as inhibition of cell growth incubated for 24 hrs by MTT assay; format: toxicity, cell-based, Chlorocebus aethiops, COS-7; conditions: African green monkey (Chlorocebus aethiops), COS-7 cells
[18] = target: [Pyruvate dehydrogenase (acetyl-transferring)] kinase isozyme 1, mitochondrial (Homo sapiens, UniProt Q15118); experiment: Inhibition of PDK1 (unknown origin) incubated for 30 mins in presence of ATP by kinase glo luminescent kinase assay
Chain of [Pyruvate dehydrogenase (acetyl-transferring)] kinase isozyme 1, mitochondrial (Q15118 whole entry): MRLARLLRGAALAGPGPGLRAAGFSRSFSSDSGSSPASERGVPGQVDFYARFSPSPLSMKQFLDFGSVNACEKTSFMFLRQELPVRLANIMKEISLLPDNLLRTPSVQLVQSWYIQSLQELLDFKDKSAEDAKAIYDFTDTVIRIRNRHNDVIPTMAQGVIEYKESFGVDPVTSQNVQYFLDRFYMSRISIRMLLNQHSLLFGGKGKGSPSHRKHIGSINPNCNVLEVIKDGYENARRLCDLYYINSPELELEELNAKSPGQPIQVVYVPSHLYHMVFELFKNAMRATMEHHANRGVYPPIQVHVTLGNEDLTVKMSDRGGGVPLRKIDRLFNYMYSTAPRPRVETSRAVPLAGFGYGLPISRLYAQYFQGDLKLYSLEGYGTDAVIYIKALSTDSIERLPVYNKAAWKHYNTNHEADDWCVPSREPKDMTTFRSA

[19] = Toxicity in BALB/c mouse assessed as effect on ALT level at 0.15 to 1.5 mg/kg measured upto 16 days; format: organism-based; conditions: in vivo, 384 h, dose 0.15-1.5 mg/kg, time < 16 day
[20] = test system: 4T1; experiment: Inhibition of PDK4 expression in mouse 4T1 cells at 4 uM incubated for 24 hrs by Western blot analysis; format: functional, cell-based
[21] = Toxicity in BALB/c mouse assessed as effect on kidney at 0.15 to 1.5 mg/kg measured upto 16 days; format: organism-based; conditions: in vivo, 384 h, dose 0.15-1.5 mg/kg, time < 16 day
[22] = target: [Pyruvate dehydrogenase (acetyl-transferring)] kinase isozyme 2, mitochondrial (Mus musculus) (UniProt Q9JK42); experiment: Inhibition of PDK2 transcription in mouse 4T1 cells at 4 uM incubated for 24 hrs by qPCR analysis; format: cell-based
[23] = test system: 4T1; experiment: Inhibition of glycolysis in mouse 4T1 cell lysates assessed as reduction in LDHA expression at 4 uM incubated for 24 hrs; format: functional, cell-based
[24] = test system: 4T1; experiment: Induction of apoptosis in mouse 4T1 cells assessed as activation of cytochrome C release from mitochondria to cytosol at 1 to 4 uM incubated for 12 hrs; format: functional, cell-based; conditions: dose 1-4 µM
[25] = Toxicity in BALB/c mouse assessed as effect on CREA level at 0.15 to 1.5 mg/kg measured upto 16 days; format: organism-based; conditions: in vivo, 384 h, dose 0.15-1.5 mg/kg, time < 16 day
[26] = test system: 4T1; experiment: Upregulation of p53 level in mouse 4T1 cells at 4 uM incubated for 24 hrs; format: functional, cell-based
[27] = test system: 4T1; experiment: Downregulation of PHDC at Ser293 residues in mouse 4T1 cells at 4 uM incubated for 24 hrs by Western blot analysis; format: functional, cell-based
[28] = test system: 4T1; experiment: Downregulation of HIF-1alpha expression in mouse 4T1 cells at 4 uM incubated for 24 hrs; format: functional, cell-based
[29] = test system: 4T1; experiment: Induction of mitochondrial membrane potential depolarization in mouse 4T1 cells at high dose measured after 12 hrs by JC-1 staining based analysis; format: functional, cell-based
[30] = test system: COS-7; experiment: Effect on PDK1 expression in African monkey COS7 cells at 12 uM measured after 24 hrs; format: functional, cell-based; conditions: Chlorocebus aethiops
[31] = test system: COS-7; experiment: Effect on phosphorylation of PDH expression at Serine 293 residues in African monkey COS7 cells at 12 uM measured after 24 hrs; format: functional, cell-based; conditions: Chlorocebus aethiops
[32] = test system: 4T1; experiment: Induction of apoptosis in mouse 4T1 cells assessed as activation of caspase 3 at 2 uM incubated for 12 to 18 hrs; format: functional, cell-based; conditions: time 12-18 hrs
[33] = test system: 4T1; experiment: Antitumor activity against mouse 4T1 cells xenografted in BALB/c mouse model assessed as reduction in hepatosplenomegaly by measuring organ coefficient at 0.15 to 1.5 mg/kg; format: functional, organism-based; conditions: dose 0.15-1.5 mg/kg
[34] = test system: 4T1; experiment: Induction of mitochondrial membrane potential depolarization in mouse 4T1 cells at low dose measured after 12 hrs by JC-1 staining based analysis; format: functional, cell-based
[35] = Toxicity in BALB/c mouse assessed as effect on liver at 0.15 to 1.5 mg/kg measured upto 16 days; format: organism-based; conditions: in vivo, 384 h, dose 0.15-1.5 mg/kg, time < 16 day
[36] = test system: COS-7; experiment: Effect on PHDC expression in African monkey COS7 cells at high concentration measured after 6 hrs; format: functional, cell-based; conditions: Chlorocebus aethiops
[37] = Toxicity in BALB/c mouse assessed as effect on ALP level at 0.15 to 1.5 mg/kg measured upto 16 days; format: organism-based; conditions: in vivo, 384 h, dose 0.15-1.5 mg/kg, time < 16 day
[38] = Toxicity in BALB/c mouse assessed as effect on UA level at 0.15 to 1.5 mg/kg measured upto 16 days; format: organism-based; conditions: in vivo, 384 h, dose 0.15-1.5 mg/kg, time < 16 day
[39] = test system: 4T1; experiment: Antitumor activity against mouse 4T1 cells xenografted in BALB/c mouse model assessed as reduction in inflammatory index in routine blood at 0.15 to 1.5 mg/kg; format: functional, organism-based; conditions: dose 0.15-1.5 mg/kg
[40] = test system: MCF7; experiment: Antiproliferative activity against human MCF7 cells assessed as inhibition of cell growth incubated for 24 hrs by MTT assay; format: functional, cell-based; conditions: MCF7, 24 h
[41] = test system: 4T1; experiment: Induction of mitochondrial respiration in mouse 4T1 cells assessed as increase in oxygen consumption rate at 2 to 6 uM incubated for 6 hrs by seahorse XF96 flux analyzer; format: functional, cell-based; conditions: dose 2-6 µM

For O=C(CCCCCNC(=O)C(Cl)Cl)Nc1ccc([As]2SCCCS2)cc1, the inhibition [1] was “Active”, the IC50 [2] was 1350 nM and the inhibition [3] was “Active”. The IC50 [4] was 1720 nM, the Activity [5] was “inactive” and the Activity [6] was “Active”. For the same molecule, the Activity [7] was “Dose-Dependent Effect”, the Activity [8] was “Non-Toxic” and the inhibition [9] was “Active”. For the same molecule, the “Ratio IC50” value [10] was 6, the Activity [11] was 16.1% and the inhibition [12] was “Active”. For the same molecule, the Activity [13] was “Non-Toxic”, the Activity [14] was “Active” and the Activity [15] was “Non-Toxic”. The Activity [16] was “Active”, the IC50 at 24 h [17] was 11200 nM and the EC50 [18] was 68 nM. For the same molecule, the Activity [19] was “Non-Toxic”, the inhibition [20] was “Active” and the Activity [21] was “Non-Toxic”. The inhibition [22] was “Active”, the inhibition [23] was “Active” and the Activity [24] was “Active”. For the same molecule, the Activity [25] was “Non-Toxic”, the Activity [26] was “Active” and the Activity [27] was “Active”. The Activity [28] was “Active”, the Activity [29] was “Active” and the Activity [30] was “inactive”. The Activity [31] was “inactive”, the Activity [32] was “Active” and the Activity [33] was “Active”. For the same molecule, the Activity [34] was “inactive”, the Activity [35] was “Non-Toxic” and the Activity [36] was “inactive”. For the same molecule, the Activity [37] was “Non-Toxic”, the Activity [38] was “Non-Toxic” and the Activity [39] was “Active”. The IC50 [40] was 2500 nM and the Activity [41] was “Active”.
